In PubChem BioAssay AID328 (DTP/NCI, 2004) one finds T/C data, which are given here for 21 molecules.

The structures appear in SMILES notation. Where “and” joins values, the source holds several entries; their conditions need not be identical. Equal values may be shown once. Inconclusive results and toxic doses are left out.

The test system of the experiment is BDF1 mice, P388 leukemia ip, median survival T/C. The experiment can be described thus: NCI In Vivo Anticancer Drug Screen. Data for tumor model P388 Leukemia (intraperitoneal) in B6D2F1 (BDF1) mice. To be noted: endpoint: median survival time, higher = longer survival. The gist of the method: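 Each value expresses how treatment altered survival: treated-mouse outcome over vehicle-mouse outcome, both groups bearing the transplanted tumour.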

Setting [1] is: dose: 50.0 mg/kg/injection, schedule: Q01DX009 (ip), vehicle: saline with Tween-80.
Setting [2] is: dose: 100.0 mg/kg/injection, schedule: Q01DX009 (ip), vehicle: saline with Tween-80.
The mark [3] stands for this setting: dose: 100.0 mg/kg/injection, schedule: Q04DX003 (ip), vehicle: Klucel (hydroxypropylcellulose) (HPC).
The mark [4] stands for this setting: dose: 100.0 mg/kg/injection, schedule: Q04DX003 (ip), vehicle: saline with Tween-80.
[5] abbreviates: dose: 200.0 mg/kg/injection, schedule: Q01DX009 (ip), vehicle: saline with Tween-80.
Where [6] appears, read: dose: 200.0 mg/kg/injection, schedule: Q04DX003 (ip), vehicle: Klucel (hydroxypropylcellulose) (HPC).
Setting [7] is: dose: 200.0 mg/kg/injection, schedule: Q04DX003 (ip), vehicle: saline with Tween-80.
[8] abbreviates: dose: 400.0 mg/kg/injection, schedule: Q01DX009 (ip), vehicle: saline with Tween-80.
[9] abbreviates: dose: 400.0 mg/kg/injection, schedule: Q04DX003 (ip), vehicle: Klucel (hydroxypropylcellulose) (HPC).
The mark [10] stands for this setting: dose: 400.0 mg/kg/injection, schedule: Q04DX003 (ip), vehicle: saline with Tween-80.
[11] abbreviates: dose: 12.5 mg/kg/injection, schedule: Q01DX009 (ip), vehicle: saline with Tween-80.
Where [12] appears, read: dose: 25.0 mg/kg/injection, schedule: Q01DX009 (ip), vehicle: saline with Tween-80.

As for `N#CC1c2ccccc2C=CN1C(=O)c1ccccc1` (configuration not stated), the T/C by setting is: under setting [1], 115 % of control; under setting [2], 110 % of control; under setting [3], 100 % of control; under setting [4], 100 % of control; under setting [5], 110 % of control; under setting [6], 109 % of control. For the same molecule, the T/C is 100 % of control under setting [7], 110 % of control under setting [8], 109 % of control under setting [9] and 100 % of control under setting [10].
In the case of `ClCCN(CCCl)CCOc1ccc(-c2nc3ccccc3[nH]2)cc1`, for the setting “dose: 12.5 mg/kg/injection, schedule: Q04DX002 (ip), vehicle: saline”, the T/C is 189 % of control.
`CC1=CC(C)(C)Nc2ccc(CSc3ccccc3)cc21`: the T/C (dose: 50.0 mg/kg/injection, schedule: Q01DX009 (ip), vehicle: saline + alcohol) is 102 % of control; the T/C (dose: 100.0 mg/kg/injection, schedule: Q01DX009 (ip), vehicle: saline + alcohol) was 120 % of control; the T/C (dose: 200.0 mg/kg/injection, schedule: Q01DX009 (ip), vehicle: saline + alcohol) was 120 % of control.
On to `CC1CCCCC12OCCO2` (configuration not stated), for which the T/C by setting is: under setting [1], 100 % of control; under setting [2], 113 % of control; under setting [4], 100 % of control; under setting [5], 104 % of control; under setting [7], 109 % of control; under setting [10], 100 % of control.
`COc1ccc(-n2nc3c(c2-c2cccnc2)CCc2ccccc2-3)cc1`: the T/C by setting is: under setting [3], 103 % of control; under setting [6], 109 % of control; under setting [9], 105 % of control.
As for `CCN1CCC(OC(=O)c2ccccc2)(c2nccc3ccccc23)CC1`, the T/C is 102 % of control under setting [11], 111 % of control under setting [12] and 124 % of control under setting [1].
With `CCCCCCCCCCCCCCCC(=O)N(CCC#N)CCC#N`, the T/C is 91 % of control (dose: 66.0 mg/kg/injection, schedule: Q01DX009 (ip), vehicle: saline with Tween-80); 91 % of control under setting [2]; 108 % of control (dose: 150.0 mg/kg/injection, schedule: Q01DX009 (ip), vehicle: saline with Tween-80).
In the case of `Nc1cc(N)c([N+](=O)[O-])cc1[N+](=O)[O-]`, the T/C runs as follows: under setting [2], 90 % of control; under setting [5], 100 % of control; under setting [8], 104 % of control.
Take `Oc1cc(CN2CCCC2)c(O)cc1CN1CCCC1`: the T/C by setting is: under setting [11], 111 % of control; under setting [12], 106 % of control; under setting [1], 111 % of control; under setting [2], 122 % of control.
Consider `CCC[S-].CCC[S-].[C-]#[O+].[C-]#[O+].[C-]#[O+].[C-]#[O+].[Rh].[Rh]`, for which the T/C is 122 % of control under setting [4]; 90 % of control under setting [5]; 122 % of control under setting [7]; 100 % of control under setting [8]; 122 % of control under setting [10].
`O[O][Ge]([c]1ccccc1)([c]1ccccc1)[c]1ccccc1`: the T/C is 100 % of control (dose: 100.0 mg/kg/injection, schedule: Q01DX001 (ip), vehicle: Klucel (hydroxypropylcellulose) (HPC)); 100 % of control (dose: 200.0 mg/kg/injection, schedule: Q01DX001 (ip), vehicle: Klucel (hydroxypropylcellulose) (HPC)); 100 % of control (dose: 400.0 mg/kg/injection, schedule: Q01DX001 (ip), vehicle: Klucel (hydroxypropylcellulose) (HPC)).
Regarding `OC(CNc1ccc(Cl)cc1)COc1ccc(Cl)cc1Cl` (configuration not stated), the T/C (dose: 50.0 mg/kg/injection, schedule: Q01DX009 (ip), vehicle: Klucel (hydroxypropylcellulose) (HPC)) is 100 % of control; the T/C (dose: 100.0 mg/kg/injection, schedule: Q01DX009 (ip), vehicle: Klucel (hydroxypropylcellulose) (HPC)) was 101 % of control; the T/C (dose: 200.0 mg/kg/injection, schedule: Q01DX009 (ip), vehicle: Klucel (hydroxypropylcellulose) (HPC)) is 102 % of control.
For `CCOC(=O)C(CSCSC)NC(=O)/C=C/c1cccnc1` (configuration not stated), the T/C by setting is: (dose: 100.0 mg/kg/injection, schedule: Q01DX009 (ip), vehicle: saline) 96 % of control; under setting [4], 91 % of control; (dose: 200.0 mg/kg/injection, schedule: Q01DX009 (ip), vehicle: saline) 106 % of control; under setting [7], 91 % of control; (dose: 400.0 mg/kg/injection, schedule: Q01DX009 (ip), vehicle: saline) 104 % of control; under setting [10], 120 % of control.
For the molecule `Cc1ccc2c(/C=C/c3ccc(N(C)C)cc3)ccnc2c1C`, the T/C under setting [2] is 120 % of control.
With `Cn1c([N+](=O)[O-])cnc1CSC(=S)N1CCN(C(=S)SCc2ncc([N+](=O)[O-])n2C)CC1`, the T/C under setting [12] is 106 % of control, the T/C under setting [1] is 103 % of control and the T/C under setting [2] is 103 % of control.
On to `CCOC(=O)CC(C)(N)NC(N)=O` (configuration not stated), for which the T/C (dose: 100.0 mg/kg/injection, schedule: Q01DX001 (ip), vehicle: saline with Tween-80) was 110 % of control; the T/C under setting [2] is 115 % of control; the T/C (dose: 100.0 mg/kg/injection, schedule: Q04DX003 (ip), vehicle: alcohol) is 110 % of control; the T/C (dose: 200.0 mg/kg/injection, schedule: Q01DX001 (ip), vehicle: saline with Tween-80) is 95 % of control; the T/C under setting [5] was 105 % of control; the T/C (dose: 200.0 mg/kg/injection, schedule: Q04DX003 (ip), vehicle: alcohol) was 105 % of control. Besides, the T/C by setting is: (dose: 400.0 mg/kg/injection, schedule: Q01DX001 (ip), vehicle: saline with Tween-80) 110 % of control; under setting [8], 105 % of control; (dose: 400.0 mg/kg/injection, schedule: Q04DX003 (ip), vehicle: alcohol) 110 % of control.
`COc1cc([C@@H]2c3cc4c(c(O)c3C[C@H]3COC(=O)[C@@H]32)OCO4)cc(OC)c1OC`: the T/C is, setting by setting: (dose: 0.5 mg/kg/injection, schedule: Q01DX001 (ip), vehicle: other) 115 % of control; (dose: 0.5 mg/kg/injection, schedule: Q01DX001 (ip), vehicle: saline) 90 % of control; (dose: 0.5 mg/kg/injection, schedule: Q01DX010 (ip), vehicle: other) 122 % of control; (dose: 1.0 mg/kg/injection, schedule: Q01DX001 (ip), vehicle: other) 121 % of control; (dose: 1.0 mg/kg/injection, schedule: Q01DX001 (ip), vehicle: saline) 109 % of control; (dose: 1.0 mg/kg/injection, schedule: Q01DX010 (ip), vehicle: other) 150 % of control. Besides, the T/C (dose: 2.0 mg/kg/injection, schedule: Q01DX001 (ip), vehicle: saline) is 118 % of control; the T/C (dose: 2.0 mg/kg/injection, schedule: Q01DX010 (ip), vehicle: other) was 168 % of control; the T/C (dose: 2.0 mg/kg/injection, schedule: Q01DX010 (ip), vehicle: saline) was 104 % of control; the T/C (dose: 4.0 mg/kg/injection, schedule: Q01DX001 (ip), vehicle: saline) is 118 % of control.
As to `CC1(C)/C(=C/c2ccccc2)C(=O)c2ccccc21`, the T/C is 107 % of control (dose: 12.5 mg/kg/injection, schedule: Q04DX003 (ip), vehicle: saline); 118 % of control (dose: 25.0 mg/kg/injection, schedule: Q04DX003 (ip), vehicle: saline); 91 % of control (dose: 50.0 mg/kg/injection, schedule: Q04DX003 (ip), vehicle: saline); 103 % of control and 121 % of control (dose: 100.0 mg/kg/injection, schedule: Q04DX003 (ip), vehicle: saline); 102 % of control and 112 % of control (dose: 200.0 mg/kg/injection, schedule: Q04DX003 (ip), vehicle: saline); 110 % of control (dose: 400.0 mg/kg/injection, schedule: Q04DX003 (ip), vehicle: saline).
For `CC1(C)CC1(Br)Br`, the T/C is 100 % of control under setting [11]; 106 % of control under setting [12]; 98 % of control and 100 % of control under setting [2].
Regarding `O=[N+]([O-])c1cccc(C[n+]2ccccc2C2OCCO2)c1`, the T/C is, setting by setting: (dose: 8.75 mg/kg/injection, schedule: Q01DX009 (ip), vehicle: saline) 104 % of control; (dose: 17.5 mg/kg/injection, schedule: Q01DX009 (ip), vehicle: saline) 100 % of control; (dose: 26.25 mg/kg/injection, schedule: Q04DX003 (ip), vehicle: saline) 100 % of control; (dose: 35.0 mg/kg/injection, schedule: Q01DX009 (ip), vehicle: saline) 109 % of control; (dose: 52.5 mg/kg/injection, schedule: Q04DX003 (ip), vehicle: saline) 95 % of control.
As to `O=C1C(Br)=CC(=C2C=C(Br)C(=O)C(Br)=C2)C=C1Br`, the T/C (dose: 50.0 mg/kg/injection, schedule: Q04DX003 (ip), vehicle: Klucel (hydroxypropylcellulose) (HPC)) was 113 % of control and the T/C under setting [3] is 122 % of control.
